Biological target: T1, AhR (Homo sapiens, UniProt P35869)
T1 construct: The HepG2 CYP1A1-Luc cells do express basal luciferase activity that can be increased via potent AhR agonists or decreased via potent AhR antagonists; endogenous in cells
T1 sequence (P35869 11-848): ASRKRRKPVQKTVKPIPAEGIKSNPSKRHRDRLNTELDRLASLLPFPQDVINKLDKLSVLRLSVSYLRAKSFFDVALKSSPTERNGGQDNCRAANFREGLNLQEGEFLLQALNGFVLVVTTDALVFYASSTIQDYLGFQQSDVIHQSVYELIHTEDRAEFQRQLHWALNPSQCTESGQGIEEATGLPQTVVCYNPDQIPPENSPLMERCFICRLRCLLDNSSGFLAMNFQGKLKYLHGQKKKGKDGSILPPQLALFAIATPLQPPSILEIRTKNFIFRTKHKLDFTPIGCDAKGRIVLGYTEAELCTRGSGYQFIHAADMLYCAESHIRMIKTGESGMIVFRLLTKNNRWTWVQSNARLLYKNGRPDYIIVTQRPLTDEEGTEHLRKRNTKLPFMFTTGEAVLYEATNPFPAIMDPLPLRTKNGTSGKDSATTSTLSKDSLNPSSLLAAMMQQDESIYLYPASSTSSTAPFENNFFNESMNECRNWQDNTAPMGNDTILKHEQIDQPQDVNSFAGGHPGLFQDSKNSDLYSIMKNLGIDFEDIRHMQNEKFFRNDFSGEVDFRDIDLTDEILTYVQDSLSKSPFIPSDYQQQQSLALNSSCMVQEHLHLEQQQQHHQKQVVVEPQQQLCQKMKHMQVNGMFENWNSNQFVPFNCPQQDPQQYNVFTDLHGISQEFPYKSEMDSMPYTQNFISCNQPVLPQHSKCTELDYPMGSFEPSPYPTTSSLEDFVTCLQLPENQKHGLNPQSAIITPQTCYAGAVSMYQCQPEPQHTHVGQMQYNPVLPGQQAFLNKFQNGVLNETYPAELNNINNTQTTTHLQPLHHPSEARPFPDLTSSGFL
Test: AhR Direct Luciferase Reporter Assay in HepG2 Cells
Type: cell-based
Conditions: AhR antagonistic potency; HepG2 CYP1A1-Luc cells, 18 hours, no exogenous AhR agonist or 10 nM VAF347
Source text: AhR Direct Luciferase Reporter Assay in HepG2 Cells.
A stable cell line (HepG2 CYP1A1-LUC) was used in which part of the promoter region of the human CYP1A1 gene is stably integrated into the genome of human HepG2 hepatocytes (DSZM #ACC 180) in front of a Photinus pyralis Firefly Luciferase gene. A 1210 bp fragment comprising part of the human CYP1A1 promoter was isolated via SacI and BgIII restriction digestion from Lightswitch Clone S714555 (SwitchGearGenomics) and inserted between the SacI and BgIII sites in pGL4.30 (Promega #E8481) in front of the Firefly Luciferase gene. The resulting vector was linearized with NotI, transfected into HepG2 cells (DSMZ #ACC 180) and stably transfected clones selected with 250 μg/ml Hygromycin B. After repetitive rounds of subcloning and testing for robustly regulated luciferase activity after AhR agonist stimulation, a stable clonal HepG2 CYP1A1-Luc cell line was selected.
The HepG2 CYP1A1-Luc cells do express basal luciferase activity that can be increased via potent AhR agonists or decreased via potent AhR antagonists, added to the growth medium of the cells.
In typical reporter assays performed with this cell line, cells are grown in 96-well plates and AhR modulators are titrated into the growth medium in serial dilutions in RPMI-1640 Medium (Sigma #R7509) supplemented with 8.6% fetal calf serum (Sigma #F7524) and containing either no exogenous AhR agonist or 10 nM of the potent AhR agonist VAF347 (Calbiochem #182690). Cells are further cultivated for 18 hours and luciferase activities are determined from extracts of cells in buffers containing D-Luciferine and ATP using a LUMIstar Optima microplate Luminometer from BMG Labtech.

Compound	IC50 [nM]
N#Cc1ccc(C(F)(F)F)c(-c2cc3ccc(NC(=O)C(=O)N4CCOCC4)nc3[nH]2)c1 [1/1]	100 to 1000
COCCN(C)C(=O)C(=O)Nc1ccc2cc(-c3cc(C#N)ccc3C(F)(F)F)[nH]c2n1 [1/4]	100 to 1000
N#Cc1ccc(C(F)(F)F)c(-c2cc3ccc(NC(=O)C(=O)N4CCC4)nc3[nH]2)c1 [1/7]	100 to 1000
CN1CCN(C(=O)C(=O)Nc2ccc3cc(-c4cc(C#N)ccc4C(F)(F)F)[nH]c3n2)CC1 [1/2]	> 1000
CC1(O)CN(C(=O)C(=O)Nc2ccc3cc(-c4cc(C#N)ccc4C(F)(F)F)[nH]c3n2)C1 [Example 2, N-(2-(5-Cyano-2-(trifluoromethyl)phenyl)-1H-pyrrolo[2,3-b]pyridin-6-yl)-2-(3-hydroxy-3-methylazetidin-1-yl)-2-oxoacetamide]	100 to 1000

Next, values leading:

IC50 [nM]	Compound
< 100	N#Cc1ccc(C(F)(F)F)c(-c2cc3ccc(NC(=O)C(=O)N4CCC5(CC5)C4)nc3[nH]2)c1 [1/5]
100 to 1000	N#Cc1ccc(C(F)(F)F)c(-c2cc3ccc(NC(=O)C(=O)NCc4ccccc4)nc3[nH]2)c1 [2/1, N^1-Benzyl-N^2-(2-(5-cyano-2-(trifluoromethyl)phenyl)-1H-pyrrolo[2,3-b]pyridin-6-yl)oxalamide]
< 100	N#Cc1ccc(C(F)(F)F)c(-c2cc3ccc(NC(=O)C(=O)N4CCCC4)nc3[nH]2)c1 [Example 1, N-(2-(5-Cyano-2-(trifluoromethyl)phenyl)-1H-pyrrolo[2,3-b]pyridin-6-yl)-2-oxo-2-(pyrrolidin-1-yl)acetamide]
< 100	CC1CCN1C(=O)C(=O)Nc1ccc2cc(-c3cc(C#N)ccc3C(F)(F)F)[nH]c2n1 (stereo not shown) [1/6]
< 100	CN(CC(F)(F)F)C(=O)C(=O)Nc1ccc2cc(-c3cc(C#N)ccc3C(F)(F)F)[nH]c2n1 [1/3]

Source: US20230108408A1, “OXALAMIDE SUBSTITUTED HETEROCYCLIC COMPOUNDS AS MODULATORS OF THE ARYL HYDROCARBON RECEPTOR (AHR)” (PHENEX PHARMACEUTICALS AG, priority 2020, published 2023)
